# From patent publication US6642271B2, “Potentiating compounds” (Ardenia Investments, Ltd., priority 2001, dated 2003)
# How the values were obtained:
# [1] = Solubility of compounds and formulations; type: physicochemical; conditions: for solubility in solvents: sodium salts
# Description: The obtained solution can be stored for at least three months at low temperatures, without noticeable change in the properties of compound (I-VI). Moreover, the formulation retains its cytotoxic effects during prolonged storage. Before use, the solution is evaporated in vacuo to yield a waxy solid which is dissolved in saline or other commonly used vehicle for intravenous infusion to a patient. […] An ethanol solution is prepared of one of N-(all-trans-Retinoyl)-L-cysteic acid (I), N-(13-cis-Retinoyl)-L-cysteic acid (11), N-(all-trans-Retinoyl)-L-homocysteic acid (III), N-(13-cis-Retinoyl)-L-homocysteic acid (IV), N-(all-trans-Retinoyl)-L-cysteinesulfinic acid (V), or N-(13-cis-Retinoyl)-L-cysteinesulfinic acid (VI). The obtained solution is evaporated in vacuo to give waxy solid, whereupon Taxol® is added, dissolving the waxy solid. […]
# [2] = tested on: human breast adenocarcinoma MDA-MB-231 cell line; test: Cytotoxicity: cell growth inhibition in cultures, viable cells counted by trypan blue exclusion; type: cell-based; conditions: for inhibition at 0.04 µM / inhibition at 1 µM / inhibition at 0.1 µM / inhibition at 0.01 µM / inhibition at 0.001 µM / inhibition at 0.0001 µM / inhibition at 10 pM: Homo sapiens; for Cell growth inhibition % Formulation: compound/paclitaxel formulations in saline; for Cell growth inhibition % OF W/SAB / Cell growth inhibition % OF SAB/W: dried compound/paclitaxel mixed-micellar system (OF); for Cell growth inhibition % OF W/SAB: freeze-dried as water solution, reconstituted with 0.05 M sodium acetate buffer; for Cell growth inhibition % OF SAB/W: freeze-dried in 0.05 M sodium acetate buffer, reconstituted with water
# Description: The cell line was propagated by cultivation in Nunclon 25 cm^2 flasks (Nunc A/S, Denmark) in Minimum Essential Medium Eagle (MEM), containing antibiotics and supplemented with 10% (v/v) fetal bovine serum (FBS) (Sigma, St. Louis, Mo., USA). The cultures were maintained in growth medium at 37° C. in a humidified atmosphere, 95% air and 5% CO2.
# A suspension of tumour cells (60×10^3 cells/mL) was prepared in MEM with 5% FBS and antibiotics. Cell suspension (200 μL) was seeded in wells of Nunclon 96-microwell plates (Nunc A/S, Denmark) at a density of 12×10^3 cell/well. The solutions of the drugs to be tested were added to the cultures on day 0 or day 1 in volumes of 2 μL. In all cases the cells were incubated for 3 days.
# At the end of the incubation period, adherent cells were detached by trypsinization and the number of viable cells was counted using trypan blue dye exclusion test and a hemocytometer.
# All experiments were performed at least twice and the cells counts were done in triplicate for each drug concentration. Each control and test series consisted of 6-8 cultures. The results are expressed as mean cell number ±SD and the differences between control and test series were evaluated by means of Student's t-test. The cytotoxicity of each tested drug was evaluated by the extent of cell growth inhibition. The Cell growth inhibition was evaluated as follows:
# Cell growth inhibition, %=- - - ×100
# [3] = MDA-MB-231, sodium salt in saline, final 4 × 10^−8 mol/L, day 1, three days
# [4] = MDA-MB-231, sodium salt in saline, final 10^−6 mol/L (top of range 10^−11 M to 10^−6 M), day 1, three days
# [5] = MDA-MB-231, sodium salt in saline, final 10^−7 mol/L, day 1, three days
# [6] = MDA-MB-231, sodium salt in saline, final 10^−8 mol/L, day 1, three days
# [7] = MDA-MB-231, sodium salt in saline, final 10^−9 mol/L, day 1, three days
# [8] = MDA-MB-231, sodium salt in saline, final 10^−10 mol/L, day 1, three days
# [9] = MDA-MB-231, sodium salt of the compound dissolved in saline (1 mg/ml), final concentration 10^−11 mol/L, day 1, three days
# [10] = initial saline solution 0.005 mg/mL, final 40 nM in cultures, added day 1, three days of cultivation
# [11] = initial saline solution 0.5 mg/mL, final 40 nM, day 1, three days
# [12] = initial saline solution 1.0 mg/mL, final 40 nM, day 1, three days
# [13] = initial saline solution 5.0 mg/mL, final 40 nM, day 1, three days
# [14] = sodium salt in saline, final 4 × 10^−8 mol/L, day 1, three days
# [15] = sodium salt in saline, final 10^−6 mol/L (top of range 10^−11 M to 10^−6 M), day 1, three days
# [16] = sodium salt in saline, final 10^−6 mol/L, day 1, three days
# [17] = sodium salt in saline, final 10^−7 mol/L, day 1, three days
# [18] = sodium salt in saline, final 10^−8 mol/L, day 1, three days
# [19] = sodium salt in saline, final 10^−9 mol/L, day 1, three days
# [20] = sodium salt in saline, final 10^−10 mol/L, day 1, three days
# [21] = sodium salt of the compound dissolved in saline (1 mg/ml), final concentration 10^−11 mol/L, day 1, three days
smiles,measurement,setting,value
"CC1=C(/C=C/C(C)=C/C=C/C(C)=C\C(=O)N[C@@H](CS(=O)(=O)O)C(=O)O)C(C)(C)CCC1 [Compound II, N-(13-cis-Retinoyl)-L-cysteic acid]",solubility in the commercially available Taxol® preparation,[1],excellent solubility
same,solubility in solvents,[1],soluble only in mixtures containing water
same,inhibition at 0.04 µM,"[2]; MDA-MB-231, compound alone 4 × 10^−8 mol/L (40 nM), added day 0, three days",35.3%
same,inhibition at 0.04 µM,"[2]; MDA-MB-231, dry substance, stock 1 mg/ml in saline, final 4 × 10^−8 mol/L, day 1, three days",36.8%
same,inhibition at 1 µM,"[2]; MDA-MB-231, dry substance, stock 1 mg/ml in saline, final 10^−6 mol/L, day 1, three days",41.9%
same,inhibition at 0.1 µM,"[2]; MDA-MB-231, dry substance, stock 1 mg/ml in saline, final 10^−7 mol/L, day 1, three days",38.4%
same,inhibition at 0.01 µM,"[2]; MDA-MB-231, dry substance, stock 1 mg/ml in saline, final 10^−8 mol/L, day 1, three days",27.5%
same,inhibition at 0.001 µM,"[2]; MDA-MB-231, dry substance, stock 1 mg/ml in saline, final 10^−9 mol/L, day 1, three days",21.5%
same,inhibition at 0.0001 µM,"[2]; MDA-MB-231, dry substance, stock 1 mg/ml in saline, final 10^−10 mol/L, day 1, three days",17.8%
same,inhibition at 10 pM,"[2]; MDA-MB-231, dry substance, stock 1 mg/ml in saline, final concentration 10^−11 mol/L, day 1, three days",28.9%
same,inhibition at 0.04 µM,[2]; [3],46.8%
same,inhibition at 1 µM,[2]; [4],51.6%
same,inhibition at 0.1 µM,[2]; [5],46%
same,inhibition at 0.01 µM,[2]; [6],46.5%
same,inhibition at 0.001 µM,[2]; [7],41.2%
same,inhibition at 0.0001 µM,[2]; [8],35.1%
same,inhibition at 10 pM,[2]; [9],27.9%
same,cell growth inhibition,"[2]; compound alone 4 × 10^−8 mol/L (40 nM), added day 0, three days, 0.04 µM",~40%
same,number of living cells,"[2]; compound alone 4 × 10^−8 mol/L, added day 0, three days",29.9 ± 2.38 × 10^3
same,Cell growth inhibition % Formulation,[2],close to 75%
same,Cell growth inhibition % OF W/SAB,[2],close to 71%
same,Cell growth inhibition % OF SAB/W,[2],close to 72%
same,number of living cells,"[2]; dry substance, stock 1 mg/ml in saline, final 4 × 10^−8 mol/L, day 1, three days",32.6 ± 2.52 × 10^3
same,number of living cells,"[2]; dry substance, stock 1 mg/ml in saline, final 10^−6 mol/L, day 1, three days",30.0 ± 2.14 × 10^3
same,number of living cells,"[2]; dry substance, stock 1 mg/ml in saline, final 10^−7 mol/L, day 1, three days",31.8 ± 2.05 × 10^3
same,number of living cells,"[2]; dry substance, stock 1 mg/ml in saline, final 10^−8 mol/L, day 1, three days",37.4 ± 3.86 × 10^3
same,number of living cells,"[2]; dry substance, stock 1 mg/ml in saline, final 10^−9 mol/L, day 1, three days",40.5 ± 2.11 × 10^3
same,number of living cells,"[2]; dry substance, stock 1 mg/ml in saline, final 10^−10 mol/L, day 1, three days",42.4 ± 1.93 × 10^3
same,number of living cells,"[2]; dry substance, stock 1 mg/ml in saline, final concentration 10^−11 mol/L, day 1, three days",36.7 ± 3.65 × 10^3
same,cell growth inhibition,[2]; [10],32.6%
same,number of living cells,[2]; [10],34.8 ± 3.27 × 10^3
same,number of living cells,"[2]; initial saline solution 0.05 mg/mL, final 40 nM, day 1, three days",33.4 ± 2.91 × 10^3
same,cell growth inhibition,[2]; [11],35.9%
same,number of living cells,[2]; [11],33.1 ± 3.01 × 10^3
same,cell growth inhibition,[2]; [12],37.6%
same,number of living cells,[2]; [12],32.2 ± 2.14 × 10^3
same,cell growth inhibition,[2]; [13],29.3%
same,number of living cells,[2]; [13],36.5 ± 3.88 × 10^3
same,number of living cells,[2]; [14],31.2 ± 2.33 × 10^3
same,cell growth inhibition,[2]; [15],~50%
same,number of living cells,[2]; [16],28.4 ± 1.02 × 10^3
same,number of living cells,[2]; [17],31.7 ± 1.54 × 10^3
same,number of living cells,[2]; [18],31.4 ± 1.62 × 10^3
same,number of living cells,[2]; [19],34.5 ± 1.94 × 10^3
same,number of living cells,[2]; [20],38.1 ± 1.18 × 10^3
same,number of living cells,[2]; [21],42.3 ± 2.32 × 10^3
"CC1=C(/C=C/C(C)=C/C=C/C(C)=C\C(=O)N[C@@H](CS(=O)O)C(=O)O)C(C)(C)CCC1 [Compound VI, N-(13-cis-Retinoyl)-L-cysteinesulfinic acid]",solubility in the commercially available Taxol® preparation,[1],excellent solubility
same,solubility in solvents,[1],soluble only in mixtures containing water
same,inhibition at 0.04 µM,[2]; [3],24.9%
same,inhibition at 1 µM,[2]; [4],27.3%
same,inhibition at 0.1 µM,[2]; [5],25.8%
same,inhibition at 0.01 µM,[2]; [6],22.4%
same,inhibition at 0.001 µM,[2]; [7],14%
same,inhibition at 0.0001 µM,[2]; [8],13.7%
same,inhibition at 10 pM,[2]; [9],12.3%
same,Cell growth inhibition % Formulation,[2],close to 55%
same,Cell growth inhibition % OF W/SAB,[2],close to 56%
same,Cell growth inhibition % OF SAB/W,[2],close to 58%
same,number of living cells,[2]; [14],39.6 ± 2.70 × 10^3
same,cell growth inhibition,[2]; [15],~30%
same,number of living cells,[2]; [16],38.3 ± 2.34 × 10^3
same,number of living cells,[2]; [17],39.1 ± 2.16 × 10^3
same,number of living cells,[2]; [18],40.9 ± 2.88 × 10^3
same,number of living cells,[2]; [19],45.3 ± 2.55 × 10^3
same,number of living cells,[2]; [20],45.5 ± 2.68 × 10^3
same,number of living cells,[2]; [21],46.2 ± 3.54 × 10^3
"CC1=C(/C=C/C(C)=C/C=C/C(C)=C/C(=O)N[C@@H](CS(=O)O)C(=O)O)C(C)(C)CCC1 [Compound V, N-(all-trans-Retinoyl)-L-cysteinesulfinic acid]",solubility in the commercially available Taxol® preparation,[1],excellent solubility
same,solubility in solvents,[1],soluble only in mixtures containing water
same,inhibition at 0.04 µM,[2]; [3],27.1%
same,inhibition at 1 µM,[2]; [4],29.8%
same,inhibition at 0.1 µM,[2]; [5],27.6%
same,inhibition at 0.01 µM,[2]; [6],24.3%
same,inhibition at 0.001 µM,[2]; [7],16.2%
same,inhibition at 0.0001 µM,[2]; [8],14.7%
same,inhibition at 10 pM,[2]; [9],13.3%
same,Cell growth inhibition % Formulation,[2],close to 55%
same,Cell growth inhibition % OF W/SAB,[2],close to 56%
same,Cell growth inhibition % OF SAB/W,[2],close to 58%
same,number of living cells,[2]; [14],39.6 ± 1.75 × 10^3
same,cell growth inhibition,[2]; [15],~30%
same,number of living cells,[2]; [16],38.1 ± 1.86 × 10^3
same,number of living cells,[2]; [17],39.3 ± 1.22 × 10^3
same,number of living cells,[2]; [18],41.1 ± 2.34 × 10^3
same,number of living cells,[2]; [19],45.5 ± 2.80 × 10^3
same,number of living cells,[2]; [20],46.3 ± 2.49 × 10^3
same,number of living cells,[2]; [21],47.1 ± 2.41 × 10^3
